Measurements as given in patent EP0847397B1, “WATER-SOLUBLE C-RING ANALOGUES OF 20 (S)-CAMPTOTHECIN” (DR. REDDY'S RESEARCH FOUNDATION, priority 1996, dated 1997).
In brackets after ≈: the same amount, converted by molar mass.

Columns and labels:
[1] = tested on: KD 488; test: In vitro activity against AIDS related Lymphoma (ARL) cell lines (NCI protocol); type: cell-based; conditions: Homo sapiens, KD 488, ARL cell line
[2] = tested on: NCI's 60 human tumor cell line assay; test: cells; type: cell-based; conditions: 60 cell, 48 h, read-out: IC50 (mean GI50 against NCI's 60 human tumor cell line assay)
Experimental: (§3) Each test compound was screened against a battery of 60 human cell lines obtained from eight organs. In a typical procedure, the cell suspensions that were diluted according to the particular cell type and the expected target cell density (5000-40,000 cells per well based on cell growth characteristics) were added into 96-well microtiter plates. Inoculates were allowed a preincubation period of 24h at 37°C. for stabilization. Dilutions at twice the intended test concentrations were added at time zero in 100-µl aliquots to microtiter plate wells. Usually test compounds were evaluated at five 10-fold dilutions. The highest well concentration used in the test is 10^-4M. The cells are then incubated in the presence of drug (the test compound) for further 48h in 5% CO2 atmosphere and 100% humidity. At the end of this time, the adherent cells are fixed to the plate by means of trichloroacetic acid, and after a number of washes, the cell layer is treated with the protein stain Sulforhodamine B. The optical density which is proportional to protein mass, is then read by automated spectrophotometric plate readers at a wavelength of 515 nm. Readings are transferred to a microcomputer and final reports are generated using especially developed software.

[3] = tested on: HT 29; test: NCI in vitro 60 human tumor cell line assay; type: cell-based; conditions: Homo sapiens, HT-29, 48 h, read-out: Total Growth Inhibition (TGI)
Experimental: as §3

[4] = tested on: H 460; test: NCI in vitro 60 human tumor cell line assay; type: cell-based; conditions: Homo sapiens, NCI-H460, 48 h, read-out: Total Growth Inhibition (TGI)
Experimental: as §3

[5] = tested on: H 322M; test: NCI in vitro 60 human tumor cell line assay; type: cell-based; conditions: NCI-H322M, 48 h, read-out: Total Growth Inhibition (TGI)
Experimental: as §3

[6] = tested on: HCC 2998; test: NCI in vitro 60 human tumor cell line assay; type: cell-based; conditions: Homo sapiens, HCC 2998, 48 h, read-out: Total Growth Inhibition (TGI)
Experimental: as §3

[7] = tested on: HCT 15; test: NCI in vitro 60 human tumor cell line assay; type: cell-based; conditions: HCT-15, 48 h, read-out: Total Growth Inhibition (TGI)
Experimental: as §3

[8] = tested on: UO 31; test: NCI in vitro 60 human tumor cell line assay; type: cell-based; conditions: UO-31, 48 h, read-out: Total Growth Inhibition (TGI)
Experimental: as §3

[9] = tested on: HOP 92; test: NCI in vitro 60 human tumor cell line assay; type: cell-based; conditions: HOP-92, 48 h, read-out: Total Growth Inhibition (TGI)
[10] = tested on: H 226; test: NCI in vitro 60 human tumor cell line assay; type: cell-based; conditions: NCI-H226, 48 h, read-out: Total Growth Inhibition (TGI)
Experimental: as §3

[11] = tested on: H 23; test: NCI in vitro 60 human tumor cell line assay; type: cell-based; conditions: NCI-H23, 48 h, read-out: Total Growth Inhibition (TGI)
Experimental: as §3

[12] = tested on: H 522; test: NCI in vitro 60 human tumor cell line assay; type: cell-based; conditions: NCI-H522, 48 h, read-out: Total Growth Inhibition (TGI)
Experimental: as §3

[13] = tested on: COLO 205; test: NCI in vitro 60 human tumor cell line assay; type: cell-based; conditions: COLO 205, 48 h, read-out: Total Growth Inhibition (TGI)
Experimental: as §3

[14] = tested on: HCT 116; test: NCI in vitro 60 human tumor cell line assay; type: cell-based; conditions: HCT-116, 48 h, read-out: Total Growth Inhibition (TGI)
[15] = tested on: KM 12; test: NCI in vitro 60 human tumor cell line assay; type: cell-based; conditions: KM12, 48 h, read-out: Total Growth Inhibition (TGI)
Experimental: as §3

[16] = tested on: MCF 7/ ADR; test: NCI in vitro 60 human tumor cell line assay; type: cell-based; conditions: Homo sapiens, NCI/ADR-RES, 48 h, read-out: Total Growth Inhibition (TGI)
Experimental: as §3

[17] = tested on: MDA-MB-435; test: NCI in vitro 60 human tumor cell line assay; type: cell-based; conditions: MDA-MB-435, 48 h, read-out: Total Growth Inhibition (TGI)
[18] = tested on: MDA-N; test: NCI in vitro 60 human tumor cell line assay; type: cell-based; conditions: BREAST, 48h, read-out: Total Growth Inhibition (TGI)
Experimental: (§4) Each test compound was screened against a battery of 60 human cell lines obtained from eight organs. In a typical procedure, the cell suspensions that were diluted according to the particular cell type and the expected target cell density (5000-40,000 cells per well based on cell growth characteristics) were added into 96-well microtiter plates. Inoculates were allowed a preincubation period of 24h at 37°C. for stabilization. Dilutions at twice the intended test concentrations were added at time zero in 100-µl aliquots to microtiter plate wells. Usually test compounds were evaluated at five 10-fold dilutions. The highest well concentration used in the test is 10^-4M. The cells are then incubated in the presence of drug (the test compound) for further 48h in 5% CO2 atmosphere and 100% humidity. At the end of this time, the adherent cells are fixed to the plate by means of trichloroacetic acid, and after a number of washes, the cell layer is treated with the protein stain Sulforhodamine B. The optical density which is proportional to protein mass, is then read by automated spectrophotometric plate readers at a wavelength of 515 nm.

[19] = tested on: BT 549; test: NCI in vitro 60 human tumor cell line assay; type: cell-based; conditions: BT-549, 48 h, read-out: Total Growth Inhibition (TGI)
Experimental: as §3

[20] = tested on: T 47D; test: NCI in vitro 60 human tumor cell line assay; type: cell-based; conditions: T47D, 48 h, read-out: Total Growth Inhibition (TGI)
Experimental: as §3

[21] = tested on: 786-O; test: NCI in vitro 60 human tumor cell line assay; type: cell-based; conditions: 786-0, 48 h, read-out: Total Growth Inhibition (TGI)
Experimental: as §4

[22] = tested on: A 498; test: NCI in vitro 60 human tumor cell line assay; type: cell-based; conditions: A498, 48 h, read-out: Total Growth Inhibition (TGI)
Experimental: as §3

[23] = tested on: ACHN; test: NCI in vitro 60 human tumor cell line assay; type: cell-based; conditions: 48 h, read-out: Total Growth Inhibition (TGI)
Experimental: as §3

[24] = tested on: CAKI; test: NCI in vitro 60 human tumor cell line assay; type: cell-based; conditions: 48 h, read-out: Total Growth Inhibition (TGI)
Experimental: as §3

[25] = tested on: RXF 393; test: NCI in vitro 60 human tumor cell line assay; type: cell-based; conditions: RXF 393, 48 h, read-out: Total Growth Inhibition (TGI)
Experimental: as §3

[26] = tested on: SN12C; test: NCI in vitro 60 human tumor cell line assay; type: cell-based; conditions: 48 h, read-out: Total Growth Inhibition (TGI)
Experimental: as §3

[27] = result in words, compared with 20(S)-camptothecin; cited from earlier work
[28] = MTD in Swiss albino mice (single dose); conditions: mouse, in vivo, 14 days observation
Experimental: 1. MTD in Swiss albino mice:
Each Swiss Albino mouse is injected with a single does of the test compound on a day designated as Day 1: Doses that were tested are 400, 200, 100, 50, 25, 12.5, 8.3, 6.25 and 3.13 mg/kg body weight. […] (As per the protocol followed by the U.S. National Cancer Institute)

[29] = Solubility by HPLC method; type: physicochemical; conditions: aqueous buffer, 0.1M sodium acetate buffer pH 5.0, 24 hours, room temperature
Experimental: 4. Solubility by HPLC method:
Excess of compound was soaked in 0.5 ml of 0.1M sodium acetate buffer at pH 5.0 for 24 hours at room temperature. The solution was filtered through 0.45 micron PVDF syringe filter (Gelman Sciences). The filtrate was injected into HPLC at different volumes (10 & 20 µl). Chromatograms were recorded. Responses recorded were extrapolated from the calibration curve and the solubility of the compound was calculated. (J. Med. Chem., 1995; 38: 400)

[30] = Solubility by routine method; type: physicochemical; conditions: deionized water, 37°C
Experimental: 5. Solubility by routine method:
Compound was suspended in 5 ml of deionized water and heated to 37°C. for 10 min. Then, the solution was filtered and the filtrate was evaporated to drying using methanol and the solid residue was weighed.

[31] = Pharmacokinetics at MTD; type: in vivo, Swiss albino mice; conditions: mouse, ip, intraperitoneal, plasma
Experimental: 3. Pharmacokinetics at MTD:
All studies were carried out in Swiss albino mice in the weight range 35-40 g. The animals were fasted overnight prior to dosage of the drug and were fed 3 hours after dosing. The animals were dosed intraperitonially as a solution in DMSO:water (50:50; v/v). Blood samples were drawn from orbital sinus at 1, 2, 4, 6 and 8 hours after administration of the dose into heparinized tubes, centrifuged at 13000 RPM for 10 min. Plasma samples were separated and analyzed by HPLC. To 50 µl of the sample, 100 µl of chilled acidified methanol was added and mixed to precipitate proteins. The sample was centrifuged at 13,000 RPM for 10 min. 100 µl of supernatant was made up to 200 µl with methanol:water (50:50; v/v) and 100 µl was injected on HPLC. Peak area of the drug was used for quantification. Calibration, control and recovery samples were prepared by spiking 50 µl of blank plasma with known amounts of the drug and processed in the same manner as the samples. (J. Natl. Cancer Inst., 1996; 88:817-824).

[32] = tested on: ACHN; test: In vitro activity after 1 hour exposure (Sulforhodamine B); type: cell-based; conditions: Homo sapiens, 1 hour exposure then 48 hours drug-free
Experimental: (§1) 6. In vitro activity after 1 hour exposure:
(§2) Grow the cells in 15 ml of Complete Medium (RPM1-1640 with 10% Fetal bovine serum and 0.2% NaHCO3) for 3-5 days to obtain a cell number of 10^6 cells/flask. The medium is removed and the attached cells are washed with Phosphate Buffered Saline (PBS). 1 ml of 0.1% Trypsin-EDTA is added and incubated for 5 min at 37°C. Tap the flasks gently and add 5 ml of complete medium. Remove cell suspension and centrifuge at 2000 rpm for 5 min. Discard the supernatant and suspend the pellet in 5 ml of complete medium. Count the cell number in a haemocytometer. Dilute the cell suspension to 10,000 cells/100 µl in complete medium. Plate out 100 µl of cell suspension in each of 96 well microtitre plate and incubate for 24 hrs at 37°C. and 5% CO2. Terminate the reference blank (plated out separately) with 25 µl of 50% cold Trichloroacetic acid (TCA). Incubate for 1 hour at 4°C. Wash the plate (five times) with deionized water. Air dry and preserve the plate at 4°C. for determination of T0 value. Prepare suitable dilution of the test compound in complete medium and add 100 µl to each well to maintain the final concentration ranging between 10^-4M and 10^-8M. Incubate for 1 hr at 37°C. and 5% CO2. Centrifuge the microtitre plate at 1000 rpm for 5 min. Remove the supernatant. Wash the cells twice with 100 µl of PBS to remove the traces of test compound. Add 200 µl of complete medium to each well and incubate for 48 hours at 37°C. and 5% CO2. Terminate the cell growth with the addition of 50 µl of 50% cold TCA. Incubate the plate for 1 hr at 4°C. Wash the plates with deionized water (five times) and air dry. Add 100 µl of Sulforhodamine B solution (0.4% in 1% acetic acid) to each well. Keep at room temperature for 15 minutes. Wash (five times) with 1% acetic acid and air dry. Add 100 µl of 10mM Trizma base (Sigma), shake gently on plate shaker for 15 minutes and read the optical density at 490 nm in Spectrophotometric plate reader. (as per the protocol followed by the U.S. National Cancer Institute.

[33] = tested on: DU-145; test: as above; type: cell-based; conditions: Homo sapiens; DU-145, 1 hour exposure then 48 hours drug-free
Experimental: as §1, §2

[34] = tested on: HOP-62; test: as above; type: cell-based; conditions: Homo sapiens; HOP-62, 1 hour exposure then 48 hours drug-free
Experimental: as §1, §2

[35] = tested on: MCF-7/ADR; test: as above; type: cell-based; conditions: Homo sapiens, NCI/ADR-RES, 1 hour exposure then 48 hours drug-free
Experimental: as §1, §2

[36] = tested on: OVCAR-8; test: as above; type: cell-based; conditions: Homo sapiens; OVCAR-8, 1 hour exposure then 48 hours drug-free
Experimental: as §1, §2

[37] = tested on: SF-268; test: as above; type: cell-based; conditions: Homo sapiens
Experimental: as §1, §2

[38] = tested on: UACC-62; test: as above; type: cell-based; conditions: Homo sapiens; UACC-62, 1 hour exposure then 48 hours drug-free
Experimental: as §1, §2

[39] = tested on: MOLT 4; test: NCI in vitro 60 human tumor cell line assay; type: cell-based; conditions: MOLT-4, 48 h, read-out: Total Growth Inhibition (TGI)
Experimental: as §3

[40] = tested on: SF 295; test: NCI in vitro 60 human tumor cell line assay; type: cell-based; conditions: SF-295, 48 h, read-out: Total Growth Inhibition (TGI)
Experimental: as §3

[41] = tested on: U 251; test: NCI in vitro 60 human tumor cell line assay; type: cell-based; conditions: U-251, 48 h, read-out: Total Growth Inhibition (TGI)
Experimental: as §3

[42] = tested on: MCF 7; test: NCI in vitro 60 human tumor cell line assay; type: cell-based; conditions: MCF7, 48 h, read-out: Total Growth Inhibition (TGI)
Experimental: as §3

Molecule: CCc1c2c(nc3ccccc13)-c1cc3c(c(=O)n1C2OCCO)COC(=O)[C@]3(O)CC (stereo partly shown) [Example 32, 5-(2'-Hydroxyethoxy)-7-ethylcamptothecin]
- IC (TGI) ([1]; 48 h): 2.28 µM
- GI50 [1]: 0.246 µM

Molecule: CC[C@@]1(O)C(=O)OCc2c1cc1n(c2=O)C(OCC(F)(F)F)c2cc3c([N+](=O)[O-])cccc3nc2-1 (stereo partly shown) [Example 28, 9-Nitro-5-trifluoroethoxycamptothecin]
- mean GI50 [2]: 0.46 µM
- IC (TGI) [3]: 7.94 µM
- IC (TGI) [4]: 1.22 µM
- IC (TGI) [5]: 30.2 µM
- IC (TGI) [6]: 7.65 µM
- IC (TGI) [7]: > 30 µM
- IC (TGI) [8]: 1.23 µM
- IC (TGI) [9]: 8.44 µM
- IC (TGI) [10]: 4.3 µM
- IC (TGI) [11]: 0.76 µM
- IC (TGI) [12]: 13 µM
- IC (TGI) [13]: 9.48 µM
- IC (TGI) [14]: 8.01 µM
- IC (TGI) [15]: 27.4 µM
- IC (TGI) [16]: 1.21 µM
- IC (TGI) [17]: 11.4 µM
- IC (TGI) [18]: 13.4 µM
- IC (TGI) [19]: 32 µM
- IC (TGI) [20]: 1.09 µM
- IC (TGI) [21]: 0.85 µM
- IC (TGI) [22]: 1.76 µM
- IC (TGI) [23]: 0.37 µM
- IC (TGI) [24]: 0.75 µM
- IC (TGI) [25]: 15.9 µM
- IC (TGI) [26]: 2.31 µM

Molecule: 5-hydroxymethyl camptothecin
- anti-tumor activity [27]: reduced anti-tumor activity

Molecule: CCOC1c2cc3c(O)cccc3nc2-c2cc3c(c(=O)n21)COC(=O)[C@]3(O)CC (stereo partly shown) [Example 11, 5-Ethoxy-9-hydroxycamptothecin]
- MTD at 336 h ([28]; intravenous): 100 mg/kg
- MTD at 336 h ([28]; ip, intraperitoneal): 400 mg/kg
- solubility at 24 h [29]: 170 µg/mL (≈ 416 µM)
- solubility at 10 min [30]: < 1000 µg/mL
- AUC(0-t) ([31]; DMSO:water (50:50), read-out: AUC0-1): 18.5 ± 2.1 µM·h
- Cmax [31]: 6.95 ± 1.2 µM
- Tmax [31]: 1 h
- half-life [31]: 1.92 ± 0.4 h
- k el [31]: 0.000103 s⁻¹
- GI50 [32]: 0.55 µM
- GI50 [33]: 0.35 µM
- GI50 [34]: 6 µM
- GI50 [35]: 1.5 µM
- GI50 [36]: 4.5 µM
- GI50 [37]: 6 µM
- GI50 [38]: 40 µM
- mean GI50 [2]: 6.68 µM

Molecule: CC=c1c2cc3ccccc3nc2c2cc3c(c(=O)n12)COC(=O)[C@]3(O)CC [formula 11]
- anti-tumor activity [27]: anti-tumor activity comparable to that of 20(S)-camptothecin

Molecule: CC[C@@]1(O)C(=O)OCc2c1cc1n(c2=O)C(OCC(F)(F)F)c2cc3ccccc3nc2-1 (stereo partly shown) [Example 25, 5-trifluoroethoxycamptothecin]
- mean GI50 [2]: 1.82 µM
- IC (TGI) [39]: 3 µM
- IC (TGI) [40]: 2.15 µM
- IC (TGI) [41]: 3.57 µM
- IC (TGI) [42]: 9.2 µM
- IC (TGI) [3]: 7.9 µM
